The text below walks through data of patent US11865126B2, “Method for treating anxiety disorders, headache disorders, and eating disorders with psilocybin” (priority 2019, dated 2024).

The subject of one experiment is CCK-4-treated rats. Nature of the experiment: Elevated plus maze (EPM) after CCK-4 induced panic anxiety. Format: in vivo, rat. How it is done: This example examines the effects of psilocybin on induced panic anxiety. The elevated plus maze (EPM) is a widely used behavioral assay for rodents to assess anti-panic or anti-anxiety effects of pharmacological agents. Briefly, rodents are placed at the junction of the four arms of the maze, facing an open arm, and entries/duration in each arm are recorded over a period of time. An increase in open arm activity reflects anti-anxiety behavior (Walf et al., Nature Protocols, 2007).
Panic anxiety can be induced in rodents through administration of panicogenic drugs such as cholecystokinin tetrapeptide (CCK-4). Peripheral administration of CCK-4 leads to an anxiogenic-like action in the EPM model of anxiety in rats. The anxiogenic effect of CCK-4 can be antagonized by benzodiazepine (e.g., diazepam) treatment.
Animal handling was performed on a daily basis starting 1 week before the EPM assay. CCK-4 was prepared in saline at the dosage volume of 1 mL/kg and was intraperitoneally administered to the rats 30 min before implementation of the EPM test resulting in a CCK-4 dose of 0.2 mg/kg. CCK-4 was administered to all treatment groups except for the vehicle control (saline). Treatment groups for this study are shown below in Table 33. The EPM assay was performed 2 hours, and 24 hours following administration of psilocybin, and 1 hour after administration of diazepam.
The apparatus used in the EPM assay was a PVC maze covered with Plexiglas and subdivided into four equal exploratory arms (21×8 cm). All arms were interconnected by a small platform (8×8 cm). The apparatus was placed 59 cm above the floor. Two arms were open and two arms were closed with walls (height: 21 cm).
After the appropriate pre-treatment time, the rat was placed on the platform opposite a closed arm. The number of entries and the time spent in each arm were recorded during a 5 min period. The animal was considered as entered in an arm when it placed four paws in the arm. During the trial, animal handling and the visibility of the operator was minimized as much as possible.
The results were analyzed by analysis of variance (ANOVA). Fisher's PLSD was used for pairwise comparisons and p value s 0.05 were considered significant.

The next experiment deals with female Wistar rats. The experiment is described as follows: Binge eating model: chow, chocolate and total food intake.
Setting [1] is: 0.2 mg/kg i.p., 30 min before EPM.
[2] abbreviates: positive control, 1 hour after administration.

As to `CSCC[C@H](NC(=O)[C@@H](N)Cc1c[nH]c2ccccc12)C(=O)N[C@@H](CC(=O)O)C(=O)N[C@@H](Cc1ccccc1)C(N)=O` [CCK-4, cholecystokinin tetrapeptide], in the experiment on CCK-4-treated rats (setting [1]), the “Number of entries into the open arm vs saline alone” value is reported as “significantly reduced” and the “Time spent in the open arm vs saline alone” value was “significantly reduced”.
Consider `CN1C(=O)CN=C(c2ccccc2)c2cc(Cl)ccc21` [Diazepam, diazepam], for which, in the experiment with CCK-4-treated rats (setting [2]), the “Number of entries into the open arms vs CCK-4 alone” value is listed as “significant increase” and the “Time spent in the open arms vs CCK-4 alone” value was “significant increase”.
`C[C@@H](Cc1ccccc1)NC(=O)[C@@H](N)CCCCN` [LDX, lisdexamfetamine]: the “Chocolate intake during binging session vs vehicle/binge” value with female Wistar rats (0.8 mg/kg daily PO, 1 hour) is recorded as “significantly reduced chocolate eating”. In the experiment with female Wistar rats (Day 1, 0.8 mg/kg daily PO), the “Food intake over a 24 hour period” value is reported as “significantly reduced”.
